From patent US11241442B2, “Methods of use for TRP channel antagonist-based combination cancer therapies” (President and Fellows of Harvard College, priority 2017, dated 2022)

How the values were obtained:
Type in all cases: cell-based
[1] = system: TRPA1; assay: [Ca2+]i by fura-2 in TRPA1-expressing MCF-10A 3D acini; conditions: inner ECM-deprived region of MCF-10A acini
Method: (§1) For the measurement of [Ca^2+]i levels in cells cultured in 2D or 3D (in Matrigel), cells were stained with 3.5 μM fura-2-AM (Life Technology) in the presence of 2.5 mM probenecid (Sigma) and 0.02% Pluronic F-127 (Sigma) for 45 min at 37° C. The fura-2 fluorescence was measured in HBS solution containing 1.25 mM probenecid at 37° C. Fluorescence images of the cells were acquired through the Eclipse Ti-E microscope with ORCA-R2 cooled CCD camera and analyzed with Metafluor. The 340:380-nm ratio images were obtained on a pixel-by-pixel basis and were converted to Ca^2+ concentrations by in vivo calibration using 5 μM ionomycin as described previously (Nishida et al., Biochem. Biophys. Res. Commun., 262:350-354, 1999). 3D images are shown as one section from midstructure. For the measurement of [Ca^2+]i levels in cells cultured in suspension, cell clumps were dissociated with trypsin and [Ca^2+]i levels were determined by using Fluo-4 NW Calcium Assay Kit (Molecular Probes). Cells were stained with Fluo-4 according to the manufacturer's instructions and subjected to flow cytometric analysis (FACSCalibur) using HBS as sheath fluid. [Ca^2+]i levels determined by flow cytometry are reported as mean fluorescence intensity expressed in arbitrary units. Time courses of [Ca^2+]i rises in 2D culture are representative of three independent experiments and averaged Δ[Ca^2+]i represents mean±SEM from the sum of three independent experiments. Fura-2 ratio images in 3D culture are representative of two independent experiments and averaged [Ca^2+]i in 3D culture represents mean±SEM from the sum of two independent experiments.

[2] = system: HCC1569 cells; assay: Soft agar anchorage-independent growth of HCC1569 cells
Method: Cells were added to the regular MCF-10A or HCC1569 growth media (±AP-18, A-967079, or Trolox) plus 0.4% low-melt agarose (Sigma) and layered onto a bed of growth media plus 0.5% low-melt agarose. Cells were fed every 4 days with growth media (±AP-18, A-967079, or Trolox) plus 0.4% low-melt agarose. At the indicated times, viable colonies were stained with iodonitrotetrazolium chloride (Sigma). Colony number and colony size were determined using ImageJ. Images shown are representative of at least three independent experiments.

[3] = target: T1, TRPA1 (Homo sapiens, UniProt O75762); assay: Ca2+ responses to carboplatin in HCC1569 cells; conditions: 10 μM AP-18 or 300 nM A-967079
T1 construct: endogenous in cells; host or cells: HCC1569 breast cancer cells (2D culture or 3D spheroids; shGFP or shTRPA1 transduced)
T1 sequence (O75762 whole entry): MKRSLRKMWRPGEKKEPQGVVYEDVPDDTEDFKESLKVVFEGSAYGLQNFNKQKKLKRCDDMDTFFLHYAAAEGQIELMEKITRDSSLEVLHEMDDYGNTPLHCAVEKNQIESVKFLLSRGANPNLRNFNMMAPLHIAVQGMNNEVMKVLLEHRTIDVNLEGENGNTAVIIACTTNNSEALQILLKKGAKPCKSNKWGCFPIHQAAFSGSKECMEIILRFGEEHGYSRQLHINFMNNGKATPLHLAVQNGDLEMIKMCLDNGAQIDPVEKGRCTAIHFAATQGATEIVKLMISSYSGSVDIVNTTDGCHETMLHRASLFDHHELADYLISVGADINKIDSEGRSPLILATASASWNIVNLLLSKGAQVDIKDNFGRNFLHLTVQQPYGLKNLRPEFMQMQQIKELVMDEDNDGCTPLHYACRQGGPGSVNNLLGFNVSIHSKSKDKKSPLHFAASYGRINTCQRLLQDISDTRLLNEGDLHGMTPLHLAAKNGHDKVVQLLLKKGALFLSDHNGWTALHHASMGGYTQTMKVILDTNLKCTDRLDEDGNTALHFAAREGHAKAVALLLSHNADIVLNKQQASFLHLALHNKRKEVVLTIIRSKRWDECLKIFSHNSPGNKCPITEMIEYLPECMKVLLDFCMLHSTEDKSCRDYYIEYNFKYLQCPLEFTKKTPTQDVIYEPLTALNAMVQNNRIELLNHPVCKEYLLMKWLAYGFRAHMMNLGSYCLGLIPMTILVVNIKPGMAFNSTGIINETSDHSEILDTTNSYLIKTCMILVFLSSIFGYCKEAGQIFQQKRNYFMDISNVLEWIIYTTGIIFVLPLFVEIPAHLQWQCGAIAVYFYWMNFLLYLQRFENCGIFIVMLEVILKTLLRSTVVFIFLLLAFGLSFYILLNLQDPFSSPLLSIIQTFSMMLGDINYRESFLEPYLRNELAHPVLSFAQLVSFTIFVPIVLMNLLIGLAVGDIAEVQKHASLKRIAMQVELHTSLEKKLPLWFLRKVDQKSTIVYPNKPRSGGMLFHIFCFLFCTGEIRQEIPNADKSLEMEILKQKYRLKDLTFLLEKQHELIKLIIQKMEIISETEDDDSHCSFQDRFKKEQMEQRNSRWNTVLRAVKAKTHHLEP
Method: as §1

[4] = system: HCC1569 cells; assay: Live cell number and cell death under carboplatin in HCC1569 cells; conditions: carboplatin 72 h
Method: (§2) For the measurements of live cell number and cell death under treatment with H2O2, diamide, or chemotherapies, cells were cultured on 96-well plates in the presence or absence of these drugs for indicated times and stained with 5 μM bisBenzimide H 33342 trihydrochloride (Hoechst; Sigma) and 5 μM propidium iodide (PI; Sigma) for 1 h at 37° C. Hoechst- and/or PI-positive cells were counted using a laser scanning cytometer, Acumen Cellista (TTPLabTech). Apoptotic cells induced by H2O2 treatment were measured by staining with Annexin V-Alexa Fluor® 488 conjugate (Life Technologies) and PI in Ca^2+-containing solution (10 mM HEPES pH 7.4, 140 mM NaCl; 2.5 mM CaCl2), followed by flow cytometric measurement of fluorescence using a FACSCalibur. Flow cytometry plots are representative of three independent experiments. For the counting of viable cells cultured in suspension, cell clumps were dissociated with trypsin and stained with trypan blue. Viable cells were counted using the Countless Automated Cell Counters (Thermo Fisher Scientific). For the measurement of percentage of dead cells cultured in suspension, cells were cultured on poly HEMA-coated 96-well plates and stained with 5 μM Hoechst and 5 μM PI for 1 h at 37° C. without enzymatic dissociation of cell clumps. Hoechst- and/or PI-positive areas were measured using Acumen Cellista. Apoptotic cells induced by detachment were measured by staining with 5 μM Hoechst and 5 μM of CellEvent™ Caspase-3/7 Green Detection Reagent (Thermo Fisher Scientific) for 1 h at 37° C. without enzymatic dissociation of cell clumps. Hoechst- and/or CellEvent™ Caspase-3/7 Green Detection Reagent-positive areas were measured using Acumen Cellista. For the cell cycle analysis, enzymatically dissociated cells were fixed with ice-cold 70% EtOH for at least 30 min at 4° C., washed three times with PBS at 4° C., resuspended in PBS, treated with 100 μg/ml RNase A (Sigma), and stained with 50 μg/ml PI. The stained samples were subjected to flow cytometric analysis (FACSCalibur).

[5] = system: EL-12-58 cells; assay: Live cell number under carboplatin in EL-12-58 cells; conditions: 10 μM AP-18, carboplatin 72 h
Method: as §2, with “For the counting of viable cells cultured in suspension, cell clumps were dissociated with trypsin and stained with trypan blue.” left out, “For the measurement of percentage of dead cells cultured in suspension, cells were cultured on poly HEMA-coated 96-well plates and stained with 5 μM Hoechst and 5 μM PI for 1 h at 37° C. without enzymatic dissociation of cell clumps.” left out, “For the cell cycle analysis, enzymatically dissociated cells were fixed with ice-cold 70% EtOH for at least 30 min at 4° C., washed three times with PBS at 4° C., resuspended in PBS, treated with 100 μg/ml RNase A (Sigma), and stained with 50 μg/ml PI. The stained samples were subjected to flow cytometric analysis (FACSCalibur).” left out

[6] = system: HCC1500; assay: Live cell number under carboplatin in HCC1500 cells; conditions: 10 μM AP-18; carboplatin 72 h; HCC1500, very low TRPA1
Method: as §2, with “For the counting of viable cells cultured in suspension, cell clumps were dissociated with trypsin and stained with trypan blue.” left out, “For the measurement of percentage of dead cells cultured in suspension, cells were cultured on poly HEMA-coated 96-well plates and stained with 5 μM Hoechst and 5 μM PI for 1 h at 37° C. without enzymatic dissociation of cell clumps.” left out, “For the cell cycle analysis, enzymatically dissociated cells were fixed with ice-cold 70% EtOH for at least 30 min at 4° C., washed three times with PBS at 4° C., resuspended in PBS, treated with 100 μg/ml RNase A (Sigma), and stained with 50 μg/ml PI. The stained samples were subjected to flow cytometric analysis (FACSCalibur).” left out

Sequence of TRPA1 (O75762 682-1119 limits assumed): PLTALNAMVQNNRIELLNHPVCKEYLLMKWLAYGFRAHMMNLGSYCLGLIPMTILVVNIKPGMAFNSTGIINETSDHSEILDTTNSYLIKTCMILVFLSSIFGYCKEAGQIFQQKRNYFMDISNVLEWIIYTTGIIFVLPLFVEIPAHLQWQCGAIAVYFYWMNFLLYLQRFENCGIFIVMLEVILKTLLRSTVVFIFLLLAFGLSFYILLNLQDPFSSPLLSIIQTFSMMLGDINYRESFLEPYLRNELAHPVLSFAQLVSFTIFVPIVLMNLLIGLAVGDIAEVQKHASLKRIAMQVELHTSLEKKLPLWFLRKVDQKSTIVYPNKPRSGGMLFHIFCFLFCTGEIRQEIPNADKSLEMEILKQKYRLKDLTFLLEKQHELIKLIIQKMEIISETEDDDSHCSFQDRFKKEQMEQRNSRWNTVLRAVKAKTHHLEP

AP-18
TRPA1- or E681K-induced [Ca2+]i rises [1]: abolished
anchorage-independent growth (number and average size of colonies) [2]: impaired
[Ca2+]i rises upon carboplatin treatment [3]: significantly suppressed
oscillatory Ca2+ responses upon carboplatin treatment [3]: significantly suppressed
cell death in response to carboplatin treatment [4]: enhanced
live cell number in response to carboplatin treatment [4]: substantially suppressed
sensitization to carboplatin [5]: sensitized
sensitization to carboplatin [6]: minimal to no effect
